Experiment [1] has as its target DNA-PK (Homo sapiens, UniProt P78527). Description: DNA-PK Z'LYTE in vitro enzyme assay. Type of experiment: biochemical. As to conditions: 25.0 micromolar ATP; read-out: absolute IC50. The source says: Use the Z'LYTE® kinase assay format (Invitrogen) to determine IC50 values against DNA-PK for a compound. This is a fluorescence based, coupled enzyme assay format based on sensitivity of phosphorylated vs. nonphosphorylated dual labeled peptide substrate (Coumerin on amino terminus, Fluorescein on carboxy terminus) to proteolysis. Use the Fluorescence Resonance Energy Transfer (FRET) ratio to monitor DNA-PK activity where phosphorylation of the peptide protects the peptide from proteolytic cleavage and the FRET of the substrate is maintained. Perform the kinase reaction using 10 microliter reaction volume in a Corning®, low volume NBS, black 384 well plate (Corning® #3676). […] Read the plate on a fluorescence plate reader with 400 nm wavelength excitation filter and emission filters of 445 and 520 nm Use the signal measured with 445 nm filter (specific to Coumarin) over the signal measured with 520 filter (specific to fluorescein) to calculate the FRET ratio. […]

Experiment [2] relates to A204. Description: Cell proliferation assay (CellTiter-Glo), A204. Type of experiment: cell-based. As to conditions: Homo sapiens, A204, 72 h. The method, then: Plate cells in a 96-well plate at 2000 cells/well in 100 μL of cell specific medium (for U87MG use DMEM, 10% FBS, 25 mM 4-(2-hydroxyethyl)-1-piperazineethanesulfonic acid (HEPES), 1.0 mM sodium pyruvate, and 0.1 mM Non Essential Amino Acids (ATCC Cat.#30-2002); for HT1080 use Eagle's MEM, 10% FBS (ATCC Cat.#30-2003); for H1975, A2780, SJSA-1 and 786-O use RPMI 1640, 10% FBS (ATCC Cat.#30-2001); for A204 use McCoy's 5A, 10% FBS (ATCC Cat.#30-2007) except in column 1 use medium only as the blank control. Incubate the plates overnight at 37° C. and 5% CO2. On the next day, prepare compound stocks at 1 mM in DMSO and serially dilute in DMSO in a 96-well round bottom polypropylene plate. Assay compounds at 10 concentrations in duplicate, 4 compounds per plate.
Transfer 4 μL of the DMSO serial dilutions to a 96 well plate and add 196 μL of culture medium to create a 10× stock for dosing. Gently transfer 11 μL of each dosing stock to the corresponding well of the cell plate resulting in a 0.2% DMSO concentration and a 111 μL final volume. […]
Prepared the CellTiter-Glo reagent (Promega, Cat: G7571) and add 100 µL to each well after the incubation is complete, homogenize the cells by mixing on an orbital shaker for 2 min and then incubate at RT for 10 min to allow the luminescent signal to stabilize. Record the luminescent raw data with a Wallac Victor V plate reader. […]

Experiment [3] relates to CXF 676 human tumor xenograft cells. Description: Oncotest tumor clonogenic assay, CXF 676. Type of experiment: cell-based. As to conditions: colony formation, Colon CXF 676, adeno carcinoma, md, read-out: Absolute IC50.
The test system of experiment [4] is LXFA 1041 human tumor xenograft cells. Description: Oncotest tumor clonogenic assay, LXFA 1041. As to conditions: colony formation, NSCLC LXFA 1041, adeno carcinoma, md, read-out: Absolute IC50. Type of experiment: cell-based.
Experiment [5] has as its system LXFE 211 human tumor xenograft cells. Briefly: Oncotest tumor clonogenic assay, LXFE 211. Type of experiment: cell-based. As to conditions: colony formation, NSCLC LXFE 211, squamous cell carcinoma, ud, read-out: Absolute IC50.
Experiment [6] has as its system OVXF 1353 human tumor xenograft cells. Description: Oncotest tumor clonogenic assay, OVXF 1353. Type of experiment: cell-based. As to conditions: colony formation, Ovary OVXF 1353, adeno carcinoma, pd, read-out: Absolute IC50.
Experiment [7] deals with PRXF PC3M human tumor xenograft cells. Briefly: Oncotest tumor clonogenic assay, PRXF PC3M. As to conditions: PC-3M, colony formation, Prostate PRXF PC3M, adeno carcinoma, metastatic, pd, read-out: Absolute IC50. The format is cell-based.
In experiment [8] the test system is RXF 1220 human tumor xenograft cells. Briefly: Oncotest tumor clonogenic assay, RXF 1220. As to conditions: colony formation, Renal RXF 1220, hypernephroma, pd, read-out: Absolute IC50. Type of experiment: cell-based.
Experiment [9] has as its system human non-small cell lung cancer cells NCI-H1975. Description: Xenograft tumor model, NCI-H1975. The format is in vivo, mouse. As to conditions: oral gavage. How it is done: Expand human glioblastoma cells U87MG and human renal carcinoma cells 786-O, in culture, harvest and inject subcutaneously onto the rear flank of athymic nude mice. Expand human non-small cell lung cancer cells NCI-H1975 in culture, harvest and inject subcutaneously onto the rear flank of CD-1 nu/nu mice. Prepare test compound in an appropriate vehicle and administer by oral gavage when tumors are established (7-21 days after implant). Tumor response is determined by tumor volume measurement performed twice a week during the course of treatment. Body weight is taken as a general measurement of toxicity.

As for `CO[C@@H](C)Cn1c(=O)n(C)c2cnc3ccc(-c4cncc(C(C)(C)O)c4)cc3c21` [Example 1, 8-[5-(1-Hydroxy-1-methylethyl)pyridin-3-yl]-1-[(2S)-2-methoxypropyl]-3-methyl-1,3-dihydro-2H-imidazo[4,5-c]quinolin-2-one], the IC50 is 4.24 nM in experiment [1]; 97 nM in experiment [2]; 350 nM in experiment [3]; 205 nM in [4]; 108 nM in [5]; above 200 nM in experiment [6]. Besides, the concentration for half-maximal inhibition (IC50) in experiment [7] was determined as 208 nM; in experiment [8], 191 nM. The “% TGI” value in experiment [9] (H1975, 3 mg/kg BID) is 13.8%; in [9] (H1975, 6 mg/kg BID) it was 26.9%; in experiment [9] (H1975, 10 mg/kg BID), 62.7%.

As usually defined, the IC50 is the concentration that gives 50% inhibition.

(Values after patent US8658668B2, “PI3 kinase/mTOR dual inhibitor” (Eli Lilly and Company, priority 2011, dated 2014).)
